Measured values reported in patent US8143408B2, “N-(8-heteroaryltetrahydronaphtalene-2yl) or N-(5-heteroarylchromane-3-yl) carboxamide derivatives for the treatment of pain” (AstraZeneca AB, priority 2007, dated 2012).

The molecules below were run against T1, Nav1.7 voltage-gated sodium channel (Homo sapiens, UniProt Q15858) (assay: Whole-cell voltage clamp electrophysiology assay). Settings: cells stably expressing the voltage-gated sodium channel of interest.
T1 construct: Gene(s) encoding the full-length protein of the voltage-gated sodium channel of interest are cloned and expressed; expressed in transfected cells
Format: cell-based
How it was run: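 Cells expressing full-length channel, exposed to drug by integrated pipetting on automated patch-clamp platforms or by microperfusion in conventional whole-cell patch clamp. Channels activated by a voltage protocol depolarising from a defined holding potential; buffers per platform manufacturer.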

T1 sequence (Q15858 whole entry): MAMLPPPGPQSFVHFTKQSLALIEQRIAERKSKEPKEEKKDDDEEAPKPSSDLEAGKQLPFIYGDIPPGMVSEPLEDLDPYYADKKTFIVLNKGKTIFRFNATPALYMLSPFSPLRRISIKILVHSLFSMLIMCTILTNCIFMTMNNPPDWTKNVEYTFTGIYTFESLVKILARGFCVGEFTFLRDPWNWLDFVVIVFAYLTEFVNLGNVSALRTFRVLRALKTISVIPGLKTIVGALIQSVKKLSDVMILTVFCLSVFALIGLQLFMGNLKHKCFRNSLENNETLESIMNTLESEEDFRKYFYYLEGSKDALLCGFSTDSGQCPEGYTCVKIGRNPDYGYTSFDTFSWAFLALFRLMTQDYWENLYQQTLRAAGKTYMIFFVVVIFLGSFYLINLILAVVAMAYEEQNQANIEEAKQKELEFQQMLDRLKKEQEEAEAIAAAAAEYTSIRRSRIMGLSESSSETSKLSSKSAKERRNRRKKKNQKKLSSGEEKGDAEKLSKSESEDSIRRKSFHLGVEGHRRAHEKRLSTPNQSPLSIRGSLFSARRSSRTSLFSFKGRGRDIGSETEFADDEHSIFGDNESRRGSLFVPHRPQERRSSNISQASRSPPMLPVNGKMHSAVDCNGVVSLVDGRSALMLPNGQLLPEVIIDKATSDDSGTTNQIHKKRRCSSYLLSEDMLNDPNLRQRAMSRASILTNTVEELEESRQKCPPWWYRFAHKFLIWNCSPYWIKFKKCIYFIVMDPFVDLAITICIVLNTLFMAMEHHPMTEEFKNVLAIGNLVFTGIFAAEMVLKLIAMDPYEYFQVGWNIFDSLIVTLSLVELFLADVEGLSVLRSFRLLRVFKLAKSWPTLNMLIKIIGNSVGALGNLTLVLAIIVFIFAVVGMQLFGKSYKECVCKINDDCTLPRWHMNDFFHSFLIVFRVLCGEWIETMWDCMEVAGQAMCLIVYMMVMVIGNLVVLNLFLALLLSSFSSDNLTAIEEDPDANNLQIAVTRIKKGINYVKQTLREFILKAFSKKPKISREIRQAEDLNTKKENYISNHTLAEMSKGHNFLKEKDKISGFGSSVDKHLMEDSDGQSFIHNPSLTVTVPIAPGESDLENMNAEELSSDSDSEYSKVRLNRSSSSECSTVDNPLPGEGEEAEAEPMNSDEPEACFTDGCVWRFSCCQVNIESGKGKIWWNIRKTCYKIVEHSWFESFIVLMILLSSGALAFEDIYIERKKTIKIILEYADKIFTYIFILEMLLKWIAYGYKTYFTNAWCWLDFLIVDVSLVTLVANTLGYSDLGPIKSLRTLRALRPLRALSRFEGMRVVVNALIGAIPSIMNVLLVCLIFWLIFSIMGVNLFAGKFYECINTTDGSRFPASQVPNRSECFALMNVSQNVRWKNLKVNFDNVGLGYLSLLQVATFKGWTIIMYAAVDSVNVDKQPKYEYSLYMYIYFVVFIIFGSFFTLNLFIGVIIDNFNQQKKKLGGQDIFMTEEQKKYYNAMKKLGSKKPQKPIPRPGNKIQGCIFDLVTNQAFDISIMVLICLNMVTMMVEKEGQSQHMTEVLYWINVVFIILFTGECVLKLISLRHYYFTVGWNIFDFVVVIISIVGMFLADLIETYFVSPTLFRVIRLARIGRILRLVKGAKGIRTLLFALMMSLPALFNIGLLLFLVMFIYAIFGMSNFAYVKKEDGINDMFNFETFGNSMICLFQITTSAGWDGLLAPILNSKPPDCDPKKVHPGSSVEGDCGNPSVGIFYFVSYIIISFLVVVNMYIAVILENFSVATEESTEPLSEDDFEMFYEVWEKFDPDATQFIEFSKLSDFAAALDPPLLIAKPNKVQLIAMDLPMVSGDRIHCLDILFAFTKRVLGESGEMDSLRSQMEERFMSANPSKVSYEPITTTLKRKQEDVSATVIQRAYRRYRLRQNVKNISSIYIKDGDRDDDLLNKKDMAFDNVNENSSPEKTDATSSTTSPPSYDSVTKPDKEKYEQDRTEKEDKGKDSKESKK

Going from `Cc1ncc(-c2cccc3c2C[C@H](NC(=O)c2ccc(OC4CCC4)nc2)CO3)cn1` [Example 105, 6-(cyclobutyloxy)-N-[(3S)-5-(2-methylpyrimidin-5-yl)-3,4-dihydro-2H-chromen-3-yl]nicotinamide] to `COc1ncc(-c2cccc3c2C[C@H](NC(=O)c2ccc(OC4CCC4)nc2)CO3)cn1` [Example 106, 6-(cyclobutyloxy)-N-[(3S)-5-(2-methoxypyrimidin-5-yl)-3,4-dihydro-2H-chromen-3-yl]nicotinamide], the IC50 rises from 0.0631 µM to 0.251 µM (4-fold). The first is the more potent here.

First: COc1ncc(-c2cccc3c2C[C@H](NC(=O)c2ccnc(OC(C)C)c2)CO3)cn1 [Example 107, 2-isopropoxy-N-[(3S)-5-(2-methoxypyrimidin-5-yl)-3,4-dihydro-2H-chromen-3-yl]isonicotinamide]
Second: CC#CCOc1ccc(C(=O)N[C@@H]2COc3cccc(-c4cnc(OC)nc4)c3C2)cn1 [Example 124, 6-(but-2-yn-1-yloxy)-N-[(3S)-5-(2-methoxypyrimidin-5-yl)-3,4-dihydro-2H-chromen-3-yl]nicotinamide]
The IC50 of the first is 25-fold higher: 3.98 µM for the first, 0.158 µM for the second.

First: Cc1cnc(-c2cccc3c2C[C@H](NC(=O)c2ccc(OCCCF)nc2)CO3)c(C)n1 [Example 108, N-[(3S)-5-(3,5-dimethylpyrazin-2-yl)-3,4-dihydro-2H-chromen-3-yl]-6-(3-fluoropropoxy)nicotinamide]
Second: COCCOc1ccc(C(=O)N[C@@H]2COc3cccc(-c4ccncc4)c3C2)cn1 [Example 126, 6-(2-methoxyethoxy)-N-[(3S)-5-pyridin-4-yl-3,4-dihydro-2H-chromen-3-yl]nicotinamide]
The IC50 of the first is 2-fold higher: 3.98 µM for the first, 2 µM for the second. The second is the more potent here.

First: O=C(N[C@@H]1COc2cccc(-c3cnc(C4CC4)nc3)c2C1)c1ccc(OCC(F)(F)F)nc1 [Example 109, N-[(3S)-5-(2-cyclopropylpyrimidin-5-yl)-3,4-dihydro-2H-chromen-3-yl]-6-(2,2,2-trifluoroethoxy)nicotinamide]
Second: COc1ncc(-c2cccc3c2C[C@H](NC(=O)c2ccc(OCC4CCCO4)nc2)CO3)cn1 (stereo partly drawn) [Example 121, N-[(3S)-5-(2-methoxypyrimidin-5-yl)-3,4-dihydro-2H-chromen-3-yl]-6-(tetrahydrofuran-2-ylmethoxy)nicotinamide]
The IC50 of the first is 40-fold lower: 0.126 µM for the first, 5.01 µM for the second.

`CCCN(CCC)C(=O)c1ccc(C(=O)N[C@@H]2COc3cccc(-c4cnc(OC)nc4)c3C2)cn1` [Example 110, N^5-[(3S)-5-(2-methoxypyrimidin-5-yl)-3,4-dihydro-2H-chromen-3-yl]-N^2,N^2-dipropylpyridine-2,5-dicarboxamide] and `COc1ncc(-c2cccc3c2C[C@H](NC(=O)c2ccc(C(=O)N(C)CC(C)C)nc2)CO3)cn1` [Example 112, N^2-isobutyl-N^5-[(3S)-5-(2-methoxypyrimidin-5-yl)-3,4-dihydro-2H-chromen-3-yl]-N^2-methylpyridine-2,5-dicarboxamide] are within 1.5-fold of each other in IC50: 2 µM for the first, 1.58 µM for the second.

`COc1ncc(-c2cccc3c2C[C@H](NC(=O)c2ccc(C(=O)NCCC(C)C)nc2)CO3)cn1` [Example 111, N^5-[(3S)-5-(2-methoxypyrimidin-5-yl)-3,4-dihydro-2H-chromen-3-yl]-N^2-(3-methylbutyl)pyridine-2,5-dicarboxamide] and `COc1ncc(-c2cccc3c2C[C@H](NC(=O)c2ccc(C(=O)NCCC(F)(F)F)nc2)CO3)cn1` [Example 125, N^5-[(3S)-5-(2-methoxypyrimidin-5-yl)-3,4-dihydro-2H-chromen-3-yl]-N^2-(3,3,3-trifluoropropyl)pyridine-2,5-dicarboxamide] are within 1.5-fold of each other in IC50: 0.251 µM for the first, 0.316 µM for the second.

First: O=C(N[C@@H]1COc2cccc(-c3ccncc3)c2C1)c1ccc(OCc2nccs2)nc1 [Example 114, N-[(3S)-5-pyridin-4-yl-3,4-dihydro-2H-chromen-3-yl]-6-(1,3-thiazol-2-ylmethoxy)nicotinamide]
Second: Cn1ccnc1COc1ccc(C(=O)N[C@@H]2COc3cccc(-c4ccncc4)c3C2)cn1 [Example 116, 6-[(1-methyl-1H-imidazol-2-yl)methoxy]-N-[(3S)-5-pyridin-4-yl-3,4-dihydro-2H-chromen-3-yl]nicotinamide]
The IC50 of the first is 2-fold lower: 1 µM for the first, 2 µM for the second.

First: Cc1cc(COc2ccc(C(=O)N[C@@H]3COc4cccc(-c5ccncc5)c4C3)cn2)no1 [Example 115, 6-[(5-methylisoxazol-3-yl)methoxy]-N-[(3S)-5-pyridin-4-yl-3,4-dihydro-2H-chromen-3-yl]nicotinamide]
Second: O=C(N[C@@H]1COc2cccc(-c3ccncc3)c2C1)c1ccc(OCc2ccccn2)nc1 [Example 118, N-[(3S)-5-pyridin-4-yl-3,4-dihydro-2H-chromen-3-yl]-6-(pyridin-2-ylmethoxy)nicotinamide]
The IC50 of the first is 5-fold lower: 0.316 µM for the first, 1.58 µM for the second. The first is the more potent here.

First: O=C(N[C@@H]1COc2cccc(-c3ccncc3)c2C1)c1ccc(S(=O)(=O)C2CCCC2)nc1 [Example 117, 6-(cyclopentylsulfonyl)-N-[(3S)-5-pyridin-4-yl-3,4-dihydro-2H-chromen-3-yl]nicotinamide]
Second: O=C(N[C@@H]1COc2cccc(-c3ccncc3)c2C1)c1ccc(OC2CCOCC2)nc1 [Example 129, N-[(3S)-5-pyridin-4-yl-3,4-dihydro-2H-chromen-3-yl]-6-(tetrahydro-2H-pyran-4-yloxy)nicotinamide]
The IC50 of the first is 2.5-fold higher: 0.501 µM for the first, 0.2 µM for the second. The second is the more potent here.

`O=C(N[C@@H]1COc2cccc(-c3ccncc3)c2C1)c1ccc(OCc2cccnc2)nc1` [Example 119, N-[(3S)-5-pyridin-4-yl-3,4-dihydro-2H-chromen-3-yl]-6-(pyridin-3-ylmethoxy)nicotinamide] and `O=C(N[C@@H]1COc2cccc(-c3ccncc3)c2C1)c1ccc(OCc2cnccn2)nc1` [Example 120, 6-(pyrazin-2-ylmethoxy)-N-[(3S)-5-pyridin-4-yl-3,4-dihydro-2H-chromen-3-yl]nicotinamide] are within 1.5-fold of each other in IC50: 2 µM for the first, 1.58 µM for the second.

Going from `COc1ncc(-c2cccc3c2C[C@H](NC(=O)c2ccc(OCC4CCCCO4)nc2)CO3)cn1` (stereo partly drawn) [Example 122, N-[(3S)-5-(2-methoxypyrimidin-5-yl)-3,4-dihydro-2H-chromen-3-yl]-6-(tetrahydro-2H-pyran-2-ylmethoxy)nicotinamide] to `COc1ncc(-c2cccc3c2C[C@H](NC(=O)c2ccc(OCC4CCOCC4)nc2)CO3)cn1` [Example 123, N-[(3S)-5-(2-methoxypyrimidin-5-yl)-3,4-dihydro-2H-chromen-3-yl]-6-(tetrahydro-2H-pyran-4-ylmethoxy)nicotinamide], the IC50 falls from 2 µM to 1 µM (2-fold).

Going from `O=C(N[C@@H]1COc2cccc(-c3ccncc3)c2C1)c1ccc(OCC2CCO2)nc1` (stereo partly drawn) [Example 127, 6-(oxetan-2-ylmethoxy)-N-[(3S)-5-pyridin-4-yl-3,4-dihydro-2H-chromen-3-yl]nicotinamide] to `CO[C@H](C)COc1ccc(C(=O)N[C@@H]2COc3cccc(-c4ccncc4)c3C2)cn1` [Example 128, 6-{[(2R)-2-methoxypropyl]oxy}-N-[(3S)-5-pyridin-4-yl-3,4-dihydro-2H-chromen-3-yl]nicotinamide], the IC50 falls from 3.16 µM to 1 µM (3.2-fold).

Going from `O=C(N[C@@H]1COc2cccc(-c3ccncc3)c2C1)c1ccc(C(=O)NC2CCOCC2)nc1` [Example 130, N^5-[(3S)-5-pyridin-4-yl-3,4-dihydro-2H-chromen-3-yl]-N^2-(tetrahydro-2H-pyran-4-yl)pyridine-2,5-dicarboxamide] to `O=C(N[C@@H]1COc2cccc(-c3ccncc3)c2C1)c1ccc(C(=O)NCC(F)(F)F)nc1` [Example 131, N^5-[(3S)-5-pyridin-4-yl-3,4-dihydro-2H-chromen-3-yl]-N^2-(2,2,2-trifluoroethyl)pyridine-2,5-dicarboxamide], the IC50 falls from 3.98 µM to 0.631 µM (6.3-fold).
